# From patent publication US20060247416A1, “HIV gp41 HR2-derived synthetic peptides, and their use in therapy to inhibit transmission of human immunodeficiency virus” (priority 2004, published 2006)
# Tests used:
# [1] = 10 mg/ml in PBS, about pH 7.3 to about pH 7.5, 37° C., after several hours
# Procedure: Each was individually tested for stability in aqueous solution by adding the peptide at a concentration of 10 mg/ml to phosphate-buffered saline (PBS), and by measuring (e.g., by HPLC) at different time points over a period of 1 week (168 hours) the amount of peptide remaining in solution at a range of about pH 7.3 to about pH 7.5 at 37° C.
# HIV-1 = settings: regimen of antiviral agents containing T20 versus same regimen without T20; cited from earlier work
# HIV-1LAI = settings: Lawless et al., 1996; cited from earlier work
substance,measurement,setting,value
enfuvirtide,stability in aqueous solution,[1],minimal to no peptide detected in solution
same,HIV-1 viral load,HIV-1,significantly reduces
same,circulating CD4+ cell population,HIV-1,significantly increases
same,EC50 against HIV-1LAI,HIV-1LAI,0.5 ng/mL
